Test results published in PubChem BioAssay AID330 (DTP/NCI, 2004).
“And” between values parts separate entries of the source, which are not always exact repeats. Equal values may be shown once. Inconclusive results and toxic doses are left out. Rule for the calls: active = survival T/C of 150% or more; inactive = T/C below 125% in these data.

Tested on: P388 leukemia ip, CD2F1 mice, survival T/C
Experiment: NCI In Vivo Anticancer Drug Screen. Data for tumor model P388 Leukemia (intraperitoneal) in CD2F1 (CDF1) mice
Settings: endpoint: median survival time, higher = longer survival
Method in brief: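 Mice carrying the transplanted tumor received test compound or vehicle. Survival was recorded in each group, and the value is the treated-group measurement divided by that of the vehicle-treated control group.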

[1] = dose: 6.25 mg/kg/injection, schedule: Q01DX009 (ip), vehicle: Klucel (hydroxypropylcellulose) (HPC)
[2] = dose: 12.5 mg/kg/injection, schedule: Q01DX009 (ip), vehicle: Klucel (hydroxypropylcellulose) (HPC)
[3] = dose: 25.0 mg/kg/injection, schedule: Q01DX009 (ip), vehicle: Klucel (hydroxypropylcellulose) (HPC)
[4] = dose: 60.0 mg/kg/injection, schedule: Q01DX005 (ip), vehicle: Klucel (hydroxypropylcellulose) (HPC)
[5] = dose: 120.0 mg/kg/injection, schedule: Q01DX005 (ip), vehicle: Klucel (hydroxypropylcellulose) (HPC)
[6] = dose: 240.0 mg/kg/injection, schedule: Q01DX005 (ip), vehicle: Klucel (hydroxypropylcellulose) (HPC)
[7] = dose: 50.0 mg/kg/injection, schedule: Q01DX009 (ip), vehicle: Klucel (hydroxypropylcellulose) (HPC)
[8] = dose: 100.0 mg/kg/injection, schedule: Q01DX009 (ip), vehicle: Klucel (hydroxypropylcellulose) (HPC)
[9] = dose: 50.0 mg/kg/injection, schedule: Q01DX005 (ip), vehicle: saline with Tween-80
[10] = dose: 100.0 mg/kg/injection, schedule: Q01DX005 (ip), vehicle: saline with Tween-80
[11] = dose: 200.0 mg/kg/injection, schedule: Q01DX005 (ip), vehicle: saline with Tween-80
[12] = dose: 50.0 mg/kg/injection, schedule: Q01DX005 (ip), vehicle: Klucel (hydroxypropylcellulose) (HPC)
[13] = dose: 100.0 mg/kg/injection, schedule: Q01DX005 (ip), vehicle: Klucel (hydroxypropylcellulose) (HPC)
[14] = dose: 200.0 mg/kg/injection, schedule: Q01DX005 (ip), vehicle: Klucel (hydroxypropylcellulose) (HPC)
[15] = dose: 200.0 mg/kg/injection, schedule: Q01DX009 (ip), vehicle: Klucel (hydroxypropylcellulose) (HPC)
[16] = dose: 60.0 mg/kg/injection, schedule: Q01DX005 (ip), vehicle: saline with Tween-80
[17] = dose: 120.0 mg/kg/injection, schedule: Q01DX005 (ip), vehicle: saline with Tween-80
[18] = dose: 240.0 mg/kg/injection, schedule: Q01DX005 (ip), vehicle: saline with Tween-80

Measured: T/C

c1ccc2c(NC3=NCCO3)c3ccccc3nc2c1
inactive: dose: 3.12 mg/kg/injection, schedule: Q01DX009 (ip), vehicle: Klucel (hydroxypropylcellulose) (HPC) 95 % of control | [1] 95 % of control | [2] 103 % of control | [3] 111 % of control

Cc1nc2ccccc2c(=O)n1/N=C\c1ccc2c(c1)CCC2
inactive: [4] 97 % of control | [5] 104 % of control | [6] 95 % of control

Cc1ccc(S(=O)(=O)N/N=C/c2ccccc2Cl)cc1
inactive: [1] 94 % of control | [2] 98 % of control | [3] 106 % of control | dose: 25.0 mg/kg/injection, schedule: Q01DX009 (ip), vehicle: saline with Tween-80 106 % of control | [7] 104 % of control | dose: 50.0 mg/kg/injection, schedule: Q01DX009 (ip), vehicle: saline with Tween-80 104 % of control | [8] 106 % of control | dose: 100.0 mg/kg/injection, schedule: Q01DX009 (ip), vehicle: saline with Tween-80 106 % of control | dose: 200.0 mg/kg/injection, schedule: Q01DX009 (ip), vehicle: saline with Tween-80 100 % of control

Cc1ccc2nc3c(nc2c1)n(-c1ccccc1)c(=O)n3-c1cccc(Br)c1
inactive: [9] 88 % of control | [10] 91 % of control | [11] 100 % of control

Cc1nc(Nc2ccc(F)cc2)c2c(C)c[nH]c2n1
inactive: [12] 90 % of control | [13] 88 % of control | [14] 89 % of control

O=C(Nc1cccc(C(F)(F)F)c1)C(Cl)=C(Cl)Cl
inactive: [4] 103 % of control | [5] 111 % of control | [6] 95 % of control

CC(=O)NC1=C(O)C2C(c3ccccc3)C(C#N)C(=O)N2C1=O (configuration not stated)
inactive: dose: 100.0 mg/kg/injection, schedule: Q04DX002 (ip), vehicle: saline with Tween-80 100 % of control | dose: 200.0 mg/kg/injection, schedule: Q04DX002 (ip), vehicle: saline with Tween-80 100 % of control | dose: 400.0 mg/kg/injection, schedule: Q04DX002 (ip), vehicle: saline with Tween-80 95 % of control

CN(C)c1ccc2ccc(=O)[nH]c2c1
inactive: [9] 95 % of control | [10] 108 % of control | [11] 99 % of control

C=C[C@H]1C2=CCOC(=O)C2=CO[C@@H]1OC1OC(CO)C(O)C(O)C1O (some centres not stated)
inactive: dose: 0.75 mg/kg/injection, schedule: Q01DX005 (ip), vehicle: water 95 % of control | dose: 1.5 mg/kg/injection, schedule: Q01DX005 (ip), vehicle: water 95 % of control | dose: 3.0 mg/kg/injection, schedule: Q01DX005 (ip), vehicle: water 95 % of control | dose: 6.0 mg/kg/injection, schedule: Q01DX005 (ip), vehicle: water 99 % of control

Nc1ncnc2c1ccn2COCCO
inactive: dose: 50.0 mg/kg/injection, schedule: Q01DX005 (ip), vehicle: distilled water + alcohol 100 % of control | dose: 100.0 mg/kg/injection, schedule: Q01DX005 (ip), vehicle: distilled water + alcohol 101 % of control | dose: 200.0 mg/kg/injection, schedule: Q01DX005 (ip), vehicle: distilled water + alcohol 99 % of control

CC1=C(C#N)C(C)(CCl)C(C#N)=C(C)N1C
inactive: dose: 25.0 mg/kg/injection, schedule: Q01DX009 (ip), vehicle: other 96 % of control | dose: 50.0 mg/kg/injection, schedule: Q01DX009 (ip), vehicle: other 115 % of control | dose: 100.0 mg/kg/injection, schedule: Q01DX009 (ip), vehicle: other 103 % of control

CC1=C(O)c2cc3c(cc2C(=O)C1=O)OCO3
inactive: [4] 98 % of control | [5] 88 % of control | [6] 92 % of control

CCCCCCCCCCCCCCCC(=O)Nc1ncc([N+](=O)[O-])s1
inactive: [7] 86 % of control | [8] 96 % of control | [15] 96 % of control

O=c1[nH]c(=O)c2cccnc2[nH]1
inactive: [1] 93 % of control | [2] 99 % of control | [3] 121 % of control and 93 % of control | [7] 118 % of control | [8] 99 % of control

Cc1c2cc[n+](C[n+]3ccc4c(C)c5[nH]c6ccccc6c5c(C)c4c3)cc2c(C)c2c1[nH]c1ccccc12
inactive: dose: 12.5 mg/kg/injection, schedule: Q04DX002 (ip), vehicle: DMSO 107 % of control | dose: 25.0 mg/kg/injection, schedule: Q04DX002 (ip), vehicle: DMSO 111 % of control | dose: 50.0 mg/kg/injection, schedule: Q04DX002 (ip), vehicle: DMSO 115 % of control | dose: 100.0 mg/kg/injection, schedule: Q04DX002 (ip), vehicle: DMSO 121 % of control

Cn1c(C(=O)NN)cc2cc(OCc3ccccc3)ccc21
inactive: [12] 97 % of control | [13] 100 % of control | [14] 98 % of control

O=C(Cc1cccc2c(=O)cc(-c3ccccc3)oc12)OCCN1CCOCC1
inactive: dose: 50.0 mg/kg/injection, schedule: Q01DX009 (ip), vehicle: saline 99 % of control | dose: 100.0 mg/kg/injection, schedule: Q01DX009 (ip), vehicle: saline 100 % of control

CC(C)(C)c1ccc(NC(=O)Oc2ccccc2)cc1
inactive: [7] 102 % of control | [8] 105 % of control | [15] 102 % of control

COc1cc(C2c3cc4c(cc3[C@@H](OC3OC(COC(C)=O)C(OC(C)=O)C(OC(C)=O)C3OC(C)=O)[C@H]3COC(=O)[C@H]23)OCO4)cc(OC)c1OC (some centres not stated)
inactive: dose: 4.0 mg/kg/injection, schedule: Q01DX005 (ip), vehicle: saline 107 % of control | dose: 8.0 mg/kg/injection, schedule: Q01DX005 (ip), vehicle: saline 113 % of control | dose: 16.0 mg/kg/injection, schedule: Q01DX005 (ip), vehicle: saline 105 % of control | dose: 32.0 mg/kg/injection, schedule: Q01DX005 (ip), vehicle: saline 98 % of control and 105 % of control | dose: 64.0 mg/kg/injection, schedule: Q01DX005 (ip), vehicle: saline 100 % of control | dose: 128.0 mg/kg/injection, schedule: Q01DX005 (ip), vehicle: saline 100 % of control

CCOC(=O)c1ccc(N2C(=O)C(Cl)(c3ccccc3)C2c2ccco2)cc1 (configuration not stated)
inactive: [16] 100 % of control | [17] 95 % of control | [18] 94 % of control

[N-]=[N+]=Nc1ccnc2ccc(C3CCCCC3)cc12
inactive: [16] 100 % of control | [17] 92 % of control | [18] 100 % of control

Cn1cnc(=O)c2n[nH]nc21
inactive: [12] 100 % of control | [13] 100 % of control | [14] 87 % of control

CCN(CC)CCNC(=O)c1nn(C)c(=S)[nH]c1=O
inactive: dose: 100.0 mg/kg/injection, schedule: Q04DX002 (ip), vehicle: Klucel (hydroxypropylcellulose) (HPC) 93 % of control | dose: 200.0 mg/kg/injection, schedule: Q04DX002 (ip), vehicle: Klucel (hydroxypropylcellulose) (HPC) 93 % of control | dose: 400.0 mg/kg/injection, schedule: Q04DX002 (ip), vehicle: Klucel (hydroxypropylcellulose) (HPC) 101 % of control

COc1c(OC)c2oc(=O)c3cc4c(c5oc(=O)c(c1OC)c2c53)OCO4
inactive: dose: 1.75 mg/kg/injection, schedule: Q01DX005 (ip), vehicle: other 88 % of control | dose: 3.5 mg/kg/injection, schedule: Q01DX005 (ip), vehicle: other 86 % of control | dose: 7.0 mg/kg/injection, schedule: Q01DX005 (ip), vehicle: other 86 % of control

COc1ccc2c(c1)CCC1C2=NN=C2CCCC21 (configuration not stated)
inactive: dose: 100.0 mg/kg/injection, schedule: Q01DX001 (ip), vehicle: Klucel (hydroxypropylcellulose) (HPC) 97 % of control | dose: 200.0 mg/kg/injection, schedule: Q01DX001 (ip), vehicle: Klucel (hydroxypropylcellulose) (HPC) 88 % of control | dose: 400.0 mg/kg/injection, schedule: Q01DX001 (ip), vehicle: Klucel (hydroxypropylcellulose) (HPC) 92 % of control

OC1OCC(Cc2ccc3c(c2)OCO3)C1Cc1ccc2c(c1)OCO2 (configuration not stated)
inactive: dose: 100.0 mg/kg/injection, schedule: Q04DX003 (ip), vehicle: other 95 % of control | dose: 200.0 mg/kg/injection, schedule: Q04DX003 (ip), vehicle: other 90 % of control | dose: 400.0 mg/kg/injection, schedule: Q04DX003 (ip), vehicle: other 90 % of control

C[N+](C)(Cc1ccc(Br)cc1)C1c2ccccc2-c2ccccc21
inactive: [2] 107 % of control | [3] 108 % of control | [7] 115 % of control and 98 % of control

CCOC(=O)C1=CC2CCOC2O1 (configuration not stated)
inactive: [16] 95 % of control | [17] 95 % of control | [18] 101 % of control
